The source made the active and inactive calls. No cut-off for these calls is given here.
Legend:
Plasmodium falciparum [1] = assay: Antiplasmodial activity against Plasmodium falciparum 3D7 assessed as inhibition of parasite growth; type: functional, organism-based
[2] = target: Alpha-synuclein (Homo sapiens) (UniProt P37840); assay: Binding affinity to human alpha-synuclein expressed in Escherichia coli BL21 (DE3) at 100 uM incubated for 3 hrs by ETD Q-TOF ((+) HRESIMS) analysis
HEK293 = assay: Cytotoxicity against HEK293 cells assessed as reduction in cell viability at 80 uM measured after 72 hrs by resazurin dye based fluorescence assay relative to control; type: toxicity; settings: human, hek293, 72 h
Plasmodium falciparum [3] = assay: Antiplasmodial activity against ring stage drug-sensitive Plasmodium falciparum 3D7 assessed as inhibition of parasite growth incubated for 72 hrs by DAPI staining based assay; type: functional, organism-based; settings: 3D7, 72 h
[4] = Selectivity index, ratio of IC50 for cytotoxicity against HEK293 cells to IC50 for antiplasmodial activity against ring stage drug-sensitive Plasmodium falciparum 3D7; type: toxicity, cell-based; settings: human, HEK293 cells versus ring stage Plasmodium falciparum 3D7; read-out: Ratio IC50
[5] = Cytotoxicity against HEK293 cells assessed as reduction in cell viability measured after 72 hrs by resazurin dye based fluorescence assay; type: toxicity; settings: human
[6] = target: Alpha-synuclein (Homo sapiens) (UniProt P37840); assay: Inhibition of human alpha-synuclein aggregation expressed in Escherichia coli BL21 (DE3) at 10:1 compound to protein molar ratio measured after 36 hrs by thioflavin T fluorescence assay relative to control; settings: concentration not given here
Staphylococcus aureus [7] = assay: Antibacterial activity against methicillin-resistant Staphylococcus aureus ATCC 43300 at 64 ug/mL incubated for 16 to 18 hrs by resazurin dye based fluorescence assay; type: functional, organism-based; settings: dose 64.0 µg/ml, time 16-18 hrs
Pseudomonas aeruginosa = assay: Antibacterial activity against Pseudomonas aeruginosa ATCC 27853 at 64 ug/mL incubated for 18 hrs by resazurin dye based fluorescence assay; type: functional, organism-based; settings: dose 64.0 µg/ml
[8] = target: Alpha-synuclein (Homo sapiens) (UniProt P37840); assay: Inhibition of human alpha-synuclein aggregation expressed in Escherichia coli BL21 (DE3) at 400 uM measured after 36 hrs by thioflavin T fluorescence assay
Staphylococcus aureus [9] = assay: Antibacterial activity against methicillin-susceptible Staphylococcus aureus ATCC 25923 at 64 ug/mL incubated for 16 to 18 hrs by resazurin dye based fluorescence assay; type: functional, organism-based; settings: dose 64.0 µg/ml, time 16-18 hrs
Plasmodium falciparum [10] = assay: Antiplasmodial activity against ring stage drug-sensitive Plasmodium falciparum 3D7 assessed as inhibition of parasite growth at 40 uM incubated for 72 hrs by DAPI staining based assay; type: functional, organism-based

Row | Structure (SMILES) | Activity [2] | Activity (HEK293) | IC50 (Plasmodium falciparum [3]) | selectivity ratio [4] | also measured
1 | CC(C)CC(=O)c1c(O)c2c(c3c1O[C@@]1(C(C)C)OC4=C(C(=O)C(C)(C)C(=O)C4(C)C)[C@@H]31)OC1=C(C(=O)C(C)(C)C(=O)C1(C)C)[C@H]2CC(C)C | – | – | – | – | IC50 (Plasmodium falciparum [1]): 1000 nM
2 | CC(C)(O)[C@@H]1CC[C@@]2(C)CCC[C@@](C)(O)[C@@H]2C1 | inactive | – | – | – | –
3 | CCc1nc(N)nc(N)c1-c1ccc(Cl)cc1 [PYRIMETHAMINE] | – | 31% | 17 nM | 588 | –
4 | COc1ccc(C[C@H](N)C(=O)N[C@H]2[C@@H](O)[C@H](n3cnc4c(N(C)C)ncnc43)O[C@@H]2CO)cc1 [PUROMYCIN] | – | – | 91 nM | 9.2 | IC50 at 72 h [5]: 837 nM
5 | CC(C)CC(=O)c1c(O)c2c(c3c1O[C@@]1(C(C)C)OC4=C(C(=O)C(C)(C)C(=O)C4(C)C)[C@@H]31)OC1=C(C(=O)C(C)(C)C(=O)C1(C)C)[C@@H]2CC(C)C | – | – | – | – | IC50 (Plasmodium falciparum [1]): > 40000 nM
6 | C[C@H]1[C@H](OC(=O)CCC(=O)O)O[C@@H]2O[C@@]3(C)CC[C@H]4[C@H](C)CC[C@@H]1[C@@]24OO3 [ARTESUNATE] | – | 20% | 1.4 nM | 1750 | –
7 | CC1(C)CC2=C(OO1)C(C)(C)C(=O)C(C)(C)C2=O | inactive | Non-Toxic | – | – | –
8 | CC(C)C[C@]1(O)C(O)=C([C@@H](C2=C(O)C(C)(C)C(=O)C(C)(C)C2=O)C(C)C)C(=O)C([C@H](C2=C(O)C(C)(C)C(=O)C(C)(C)C2=O)C(C)C)=C1O | Active | Non-Toxic | 9500 nM | > 8.4 | inhibition [6]: 39.5%; Activity (Staphylococcus aureus [7]): inactive; Activity (Pseudomonas aeruginosa): inactive; inhibition [8]: inactive; Activity (Staphylococcus aureus [9]): inactive
9 | CC(C)=CC(=O)[C@]1(O)[C@@H](O)C(C)(C)C(=O)C1(C)C | inactive | – | – | – | –
10 | CC(C)=C[C@@]1(O)C(=O)C(C)(C)C(=O)C(C)(C)[C@H]1OC(=O)C(C)C | inactive | Non-Toxic | 16000 nM | > 5 | Activity (Staphylococcus aureus [7]): inactive; Activity (Pseudomonas aeruginosa): inactive; Activity (Staphylococcus aureus [9]): inactive
11 | CC(C)CC[C@]1(O)[C@H](O)C(C)(C)[C@@H](O)C(C)(C)[C@@H]1O | – | – | – | – | Activity (Plasmodium falciparum [10]): inactive
12 | CC(=O)O[C@@H]1C(C)(C)C(=O)C(C)(C)C(=O)[C@]1(O)CC(C)C | inactive | – | – | – | –
13 | CC(C)C[C@@]1(O)C(=O)C(C)(C)C(=O)C(C)(C)[C@H]1OC(=O)C(C)C | inactive | Non-Toxic | 6600 nM | > 12.1 | Activity (Staphylococcus aureus [7]): inactive; Activity (Pseudomonas aeruginosa): inactive; Activity (Staphylococcus aureus [9]): inactive
14 | O=C1C=C(c2ccc(O)cc2)[C@@]2(O1)O[C@@]1(OC(=O)C=C1c1ccc(O)cc1)C(c1ccc(O)cc1)=C2c1ccc(O)cc1 | – | – | – | – | IC50 (Plasmodium falciparum [1]): 5100 nM
15 | CC1(C)C=C2C(=O)C(C)(C)C(=O)C(C)(C)[C@@]2(O)OO1 | inactive | – | – | – | –

From ChEMBL document CHEMBL5370571, “α-Synuclein Aggregation Inhibitory and Antiplasmodial Activity of Constituents from the Australian Tree Eucalyptus cloeziana” (J Nat Prod, 2023)
